What all share (assay): Inhibition of in vitro proliferation of tumor cells by PBD compounds (CTG)
Holding throughout (format): cell-based

In assay [1] the test system is MKN45 (human gastric cancer cells). The note with it: MKN-45, 144 h, 6 days of culture. As for the experimental part: (§1) The objective of this assay is to measure the activity of the compounds of the present disclosure in inhibiting the proliferation of different tumor cell lines: SK-BR-3 tumor cells (human breast cancer cells, ATCC, Cat. No. HTB-30), NCI-H23 (human non-small cell lung cancer cells, Nanjing Cobioer, Cat. No. CBP60132), and MKN45 (human gastric cancer cells, Nanjing Cobioer, Cat. No. CBP60488). The cells were treated in vitro with different concentrations of the compounds. After 6 days of culture, the proliferation of the cells was measured using CTG (CellTiter-Glo® Luminescent Cell Viability Assay, Promega, Cat. No. G7573) reagent, and the in vitro activity of the compounds was evaluated based on their IC50 values.
(§2) • 1. Cell culture: SK-BR-3, NCI-H23, and MKN45 cells were separately cultured in McCoy's 5A medium (ThermoFisher, Cat. No. 16600108) and RPMI 1640 medium (ThermoFisher, Cat. No. 11875119) containing 10% FBS (Gibco, 10099-141). • 2. Cell plating: After being digested with trypsin (0.25% Trypsin-EDTA (1×), Life Technologies, Cat. No. 25200-072), the SK-BR-3, NCI-H23, and MKN45 were resuspended in their respective media and counted. The density was adjusted to 1.48×10^4 cells/mL, and the cells were plated onto 96-well plates (corning, Cat. No. 3903) at 135 μL/well, i.e., 2000 cells/well, and cultured at 37° C. for 24 h. • 3. Drug formulation: PBD drugs were formulated in round-bottom 96-well plates. Plate 1: In the first column, the concentration was 0.05 mM; in the second column through the fourth column, a 3-fold serial dilution was performed in DMSO; in the fifth column through the sixth column, a 5-fold serial dilution was performed in DMSO; in the seventh column through the ninth column, a 10-fold serial dilution was performed in DMSO; and the tenth column contained DMSO. Plate 2: Corresponding media were added to the first column through the tenth column at 196 μL/well; 4 μL of solution was transferred from each well of the first column through the tenth column of plate 1 to plate 2 and well mixed with the medium; 15 μL of the mixture was added to the cells plated the day before, and the cells were cultured at 37° C. for another 6 days. • 4. CTG assay: The cell culture plates were taken out and equilibrated to room temperature. CTG was added at 75 μL/well, and the plates were incubated at room temperature in the dark for 10 min. Then luminescence values were measured on a microplate reader (BMG labtech, PHERAstar FS).

Assay [2] relates to NCI-H23 (human non-small cell lung cancer cells). The note with it: 144 h, 6 days of culture. The procedure:
as §1, §2

Assay [3] has as its system SK-BR-3 tumor cells (human breast cancer cells). The note with it: 144 h, 6 days of culture. The procedure:
as §1, §2

One may read the IC50 as the concentration needed to halve the response being measured. High values mean weaker potency in that assay, low ones greater potency in that assay. For `COc1ccc(C2=CN3C(=O)c4cc(OC)c(OCCCCCOc5cc6c(cc5OC)C(=O)N5CC7(CC7)C[C@H]5C=N6)cc4NC(=O)[C@@H]3C2)cc1` [2-22, (S)-7-Methoxy-8-((5-(((S)-7-methoxy-5-oxo-5,11a-dihydro-1H,3H-spiro[benzo[e]pyrrolo[1,2-a][1,4]diazepine-2,1′-cyclopropan]-8-yl)oxy)pentyl)oxy)-2-(4-methoxyphenyl)-1,11a-dihydro-5H-benzo[e]pyrrolo[1,2-a][1,4]diazepine-5,11(10H)-dione], the IC50 was determined as 0.17 nM in assay [1], 0.08 nM in assay [2] and 0.26 nM in assay [3].

For `COc1ccc(C2=CN3C(=O)c4cc(OC)c(OCCOCCOc5cc6c(cc5OC)C(=O)N5CC7(CC7)C[C@H]5C=N6)cc4NC[C@@H]3C2)cc1` [2-26, (S)-7-Methoxy-8-(2-(2-(((S)-7-methoxy-2-(4-methoxyphenyl)-5-oxo-5,10,11,11a-tetrahydro-1H-benzo[e]pyrrolo[1,2-a][1,4]diazepin-8-yl)oxy)ethoxy)ethoxy)-1,11a-dihydro-3H,5H-spiro[benzo[e]pyrrolo[1,2-a][1,4]diazepine-2,1′-cyclopropan]-5-one], the values for the IC50 in assay [1], in assay [2] and in assay [3] were 2.42 nM, 2.98 nM and 2.12 nM, respectively.

For `COc1ccc(C2=CN3C(=O)c4cc(OC)c(OCCCCCOc5cc6c(cc5OC)C(=O)N5CC7(CC7)C[C@H]5CN6)cc4NC[C@@H]3C2)cc1` [2-27, (S)-7-Methoxy-8-((5-(((S)-7-methoxy-2-(4-methoxyphenyl)-5-oxo-5,10,11,11a-tetrahydro-1H-benzo[e]pyrrolo[1,2-a][1,4]diazepin-8-yl)oxy)pentyl)oxy)-1,10,11,11a-tetrahydro-3H,5H-spiro[benzo[e]pyrrolo[1,2-a][1,4]diazepine-2,1′-cyclopropan]-5-one], the IC50 in assay [1] is 7.51 nM; in assay [2], 7.28 nM; in assay [3] it was 5 nM.

As for `COc1ccc(C2=CN3C(=O)c4cc(OC)c(OCc5cncc(COc6cc7c(cc6OC)C(=O)N6CC8(CC8)C[C@H]6C=N7)c5)cc4NC[C@@H]3C2)cc1` [2-29], the IC50 in assay [1] came to 0.02 nM; in assay [2], 0.02 nM; in assay [3] it was 0.08 nM.

With `COc1cc2c(cc1OCCCCCOc1cc3c(cc1OC)C(=O)N1C=C(c4ccc(N5CCN(CCO)CC5)cc4)C[C@H]1CN3)N=C[C@@H]1CC3(CC3)CN1C2=O` [2-30, (S)-8-((5-(((S)-2-(4-(4-(2-Hydroxyethyl)piperazin-1-yl)phenyl)-7-methoxy-5-oxo-5,10,11,11a-tetrahydro-1H-benzo[e]pyrrolo[1,2-a][1,4]diazepin-8-yl)oxy)pentyl)oxy)-7-methoxy-1,11a-dihydro-3H,5H-spiro[benzo[e]pyrrolo[1,2-a][1,4]diazepine-2,1′-cyclopropan]-5-one], the half-inhibitory concentration (IC50) in assay [1] worked out at 0.04 nM; in assay [2], 0.02 nM; in assay [3], 0.21 nM.

Consider `COc1cc2c(cc1OCCCCCOc1cc3c(cc1OC)C(=O)N1C=C(c4ccc(N5CCN(C[C@@H](O)CO)CC5)cc4)C[C@H]1CN3)N=C[C@@H]1CC3(CC3)CN1C2=O` [2-31, (S)-8-((5-(((S)-2-(4-(4-((R)-2,3-Dihydroxypropyl)piperazin-1-yl)phenyl)-7-methoxy-5-oxo-5,10,11,11a-tetrahydro-1H-benzo[e]pyrrolo[1,2-a][1,4]diazepin-8-yl)oxy)pentyl)oxy)-7-methoxy-1,11a-dihydro-3H,5H-spiro[benzo[e]pyrrolo[1,2-a][1,4]diazepine-2,1′-cyclopropan]-5-one], for which the IC50 in assay [1] was 0.1 nM; in assay [2] it was 0.08 nM; in assay [3], 0.37 nM.

Consider `COc1cc2c(cc1OCCCCCOc1cc3c(cc1OC)C(=O)N1C=C(c4ccc(N5CCN(C(=O)CO)CC5)cc4)C[C@H]1CN3)N=C[C@@H]1CC3(CC3)CN1C2=O` [2-32, (S)-8-((5-(((S)-2-(4-(4-(2-Hydroxyacetyl)piperazin-1-yl)phenyl)-7-methoxy-5-oxo-5,10,11,11a-tetrahydro-1H-benzo[e]pyrrolo[1,2-a][1,4]diazepin-8-yl)oxy)pentyl)oxy)-7-methoxy-1,11a-dihydro-3H,5H-spiro[benzo[e]pyrrolo[1,2-a][1,4]diazepine-2,1′-cyclopropan]-5-one], for which the half-inhibitory concentration (IC50) turned out to be 0.13 nM in assay [1], 0.09 nM in assay [2] and 0.78 nM in assay [3].

In the case of `COc1cc2c(cc1OCCCCCOc1cc3c(cc1OC)C(=O)N1C=C(c4ccc(N5CCN(C[C@H](O)CO)CC5)cc4)C[C@H]1CN3)N=C[C@@H]1CC3(CC3)CN1C2=O` [2-33, (S)-8-((5-(((S)-2-(4-(4-((S)-2,3-Dihydroxypropyl)piperazin-1-yl)phenyl)-7-methoxy-5-oxo-5,10,11,11a-tetrahydro-1H-benzo[e]pyrrolo[1,2-a][1,4]diazepin-8-yl)oxy)pentyl)oxy)-7-methoxy-1,11a-dihydro-3H,5H-spiro[benzo[e]pyrrolo[1,2-a][1,4]diazepine-2,1′-cyclopropan]-5-one], the IC50 stood at 0.38 nM in assay [1], 0.3 nM in assay [2] and 0.73 nM in assay [3].

Regarding `COc1cc2c(cc1OCCCCCOc1cc3c(cc1OC)C(=O)N1C=C(c4ccc(SCC5CC5)cc4)C[C@H]1CN3)N=C[C@@H]1CC3(CC3)CN1C2=O` [2-34, (S)-8-((5-(((S)-2-(4-((Cyclopropylmethyl)thio)phenyl)-7-methoxy-5-oxo-5,10,11,11a-tetrahydro-1H-benzo[e]pyrrolo[1,2-a][1,4]diazepin-8-yl)oxy)pentyl)oxy)-7-methoxy-1,11a-dihydro-3H,5H-spiro[benzo[e]pyrrolo[1,2-a][1,4]diazepine-2,1′-cyclopropan]-5-one], the IC50 worked out at 1.37 nM in assay [1], 0.62 nM in assay [2] and 1.42 nM in assay [3].

Regarding `COc1cc2c(cc1OCCCCCOc1cc3c(cc1OC)C(=O)N1C=C(c4ccc(SC5CCC5)cc4)C[C@H]1CN3)N=C[C@@H]1CC3(CC3)CN1C2=O` [2-35, (S)-8-((5-(((S)-2-(4-(Cyclobutylthio)phenyl)-7-methoxy-5-oxo-5,10,11,11a-tetrahydro-1H-benzo[e]pyrrolo[1,2-a][1,4]diazepin-8-yl)oxy)pentyl)oxy)-7-methoxy-1,11a-dihydro-3H,5H-spiro[benzo[e]pyrrolo[1,2-a][1,4]diazepine-2,1′-cyclopropan]-5-one], the IC50 in assay [1] turned out to be 2.73 nM; in assay [2], 0.84 nM; in assay [3] it was 1.7 nM.

Take `COc1cc2c(cc1OCCCCCOc1cc3c(cc1OC1CC1)C(=O)N1CC4(CC4)C[C@H]1C=N3)NC[C@@H]1CC(c3ccc(C4CCOCC4)cc3)=CN1C2=O` [2-39, (S)-7-Cyclopropoxy-8-((5-(((S)-7-methoxy-5-oxo-2-(4-(tetrahydro-2H-pyran-4-yl)phenyl)-5,10,11,11a-tetrahydro-1H-benzo[e]pyrrolo[1,2-a][1,4]diazepin-8-yl)oxy)pentyl)oxy)-1,11a-dihydro-3H,5H-spiro[benzo[e]pyrrolo[1,2-a][1,4]diazepine-2,1′-cyclopropan]-5-one]: the IC50 in assay [1] is 0.84 nM; in assay [2], 0.39 nM; in assay [3], 0.58 nM.

(Values after US20250000989A1, “PYRROLO BENZODIAZEPINE DERIVATIVE, AND CONJUGATE, PREPARATION METHOD AND USE THEREOF” (priority 2021, published 2025).)
